Key:
Ash1l = test: Western blot of Ash1l protein expression level; assay type: cell-based, mouse; details: retinoic acid for 6 days
mouse ES cells [1] = test: RNA-seq analysis of differentiated mouse ES cells; assay type: cell-based; details: RNA-seq data of ref 19
Procedure: RNA-seq data reported by Yin et al.[19] was analyzed to compare RNA from undifferentiated mouse ES cells to RNA from mouse ES cells differentiated under various conditions, as described in Fig. 1. Reads were filtered using Trimmomatic v0.40 and mapped to the mouse reference genome (mm9) by TopHat (version 2.0.10). Fragments were enumerated to the UCSC reference transcriptome using the hseq-count function from the HTSeq package (version 0.6.0). Genes with <5 fragments were filtered out and gene expression changes (FC > 1.5, FDR < 0.01) were analyzed using DESeq2 (v1.42.1), with undifferentiated cells as controls. Heatmaps were generated using either the ggplot2 or pheatmap packages with z-score normalization.
Supplementary Figure 1. Analysis of RNA-seq data reported by Yin et al. (ref. 19),
comparing RNA from undifferentiated mouse ES cells to RNA from mouse ES cells
differentiated under multiple conditions (see Figure 1). Gene expression changes (FC >
1.5, FDR < 0.01 ) in 4-day RA differentiated cells were identified using DESeq2, with
undifferentiated cells as controls.
after RA treatment. Related to Figure 1.
(1 picture or pasted object on this page, not shown here)

mouse ES cells [2] = test: qPCR of gene expression in mouse ES cells, RA-induced differentiation; assay type: cell-based; details: for HoxA9 relative expression / Neurog2 relative expression / Olig1 relative expression / Runx1 relative expression: + RA 2 days, qPCR
Procedure: J1 ESCs were cultured feeder free on 0.1% gelatin-coated plates in ESC culture medium (Dulbecco’s modified Eagle’s medium (Hi-glucose), supplemented with 15% fetal bovine serum (Corning), non-essential amino acids, L-glutamine, β-mercaptoethanol, 1% penicillin/streptomycin, sodium pyruvate and 1000 U/mL leukemia inhibitory factor (LIF) (Ebioscience, 34-8521-82). For embryoid body formation, mouse ES cells were dissociated from gelatin-coated plates and seeded on non-adherent cell culture dishes (Greiner) at a density of 1 × 10^5 cells/mL in 10 mL of differentiation medium (ESC culture medium without LIF). Media was exchanged every 48 h and cells were collected at indicated time course. For neuronal differentiation, cells were plated on gelatin-coated plates at a density of 1×10^4 cells/cm^2 in ESC culture medium. The following day, medium was exchanged to differentiation medium +1 μM retinoic acid (RA) (Sigma) to induce differentiation. Medium was exchanged every 48 h for indicated time course.
Total RNA was extracted with RNeasy Mini Kit (QIAGEN) and reverse transcribed using Superscript III Reverse Transcriptase (Life Technologies). qPCR analysis was performed using Brilliant III Ultra Fast SYBR Green QPCR Master Mix (Agilent Technologies). Gene expression data were normalized against Hprt/Gapdh and represented as fold change relative to the control. The relative expression values are shown as mean ± S.D. For ChIP-qPCR, chromatin occupancy was calculated as the ratio of the amount of immunoprecipitated DNA to that of the input sample (% input).
CRISPR/Cas9 mediated editing was performed essentially as described. The designed gRNA ([…]) was cloned into the pSpCas9(BB)-2A-GFP (PX458) plasmid (a gift from Feng Zhang) and miniprepped using standard DNA miniprep procedures (Qiagen). J1 mES cells were transfected with sgRNAs or empty vector with Lipofectamine 2000 (ThermoFisher). Transfected cells were isolated by FACS at the Mount Sinai Flow Cytometry Core facility, and a single cell was plated per well in 96-well plates. Cells were cultured for 2-3 weeks until single colonies were visible. Cells were harvested and DNA was extracted using the QuickExtract solution (Epibio). PCR was performed using the following primers: Ash1l, F:TAGAAAGTCTGCACGGGCG, R:[…], Nestin, F:[…], R:[…], HoxA9, F:[…], R: […], Pax6, F:[…], R:[…], Gata4, F: […], R: […], Sox7, F:[…], R:[…], Pou5f1, F:[…], R:CAGGGCTTTCATGTCCTGG, Brachyury, F:GAGAGCGCAGGGAAGAGC, R:[…], Nkx2-5, F:[…], R:[…].

[3] = system: Meis2 enhancer and promoter sites; test: ChIP-qPCR of Ash1l occupancy at Meis2 promoter and enhancers; assay type: cell-based, mouse; details: for Ash1l occupancy, Meis2 Enh 1 / Ash1l occupancy, Meis2 Enh 2 / Ash1l occupancy, Meis2 Enh 3 / Ash1l occupancy, Meis2 promoter: Ash1l ChIP, + RA
Procedure: J1 ESCs were cultured feeder free on 0.1% gelatin-coated plates in ESC culture medium (Dulbecco’s modified Eagle’s medium (Hi-glucose), supplemented with 15% fetal bovine serum (Corning), non-essential amino acids, L-glutamine, β-mercaptoethanol, 1% penicillin/streptomycin, sodium pyruvate and 1000 U/mL leukemia inhibitory factor (LIF) (Ebioscience, 34-8521-82). For embryoid body formation, mouse ES cells were dissociated from gelatin-coated plates and seeded on non-adherent cell culture dishes (Greiner) at a density of 1 × 10^5 cells/mL in 10 mL of differentiation medium (ESC culture medium without LIF). Media was exchanged every 48 h and cells were collected at indicated time course. For neuronal differentiation, cells were plated on gelatin-coated plates at a density of 1×10^4 cells/cm^2 in ESC culture medium. The following day, medium was exchanged to differentiation medium +1 μM retinoic acid (RA) (Sigma) to induce differentiation. Medium was exchanged every 48 h for indicated time course. Total RNA was extracted with RNeasy Mini Kit (QIAGEN) and reverse transcribed using Superscript III Reverse Transcriptase (Life Technologies). qPCR analysis was performed using Brilliant III Ultra Fast SYBR Green QPCR Master Mix (Agilent Technologies). Gene expression data were normalized against Hprt/Gapdh and represented as fold change relative to the control. The relative expression values are shown as mean ± S.D. For ChIP-qPCR, chromatin occupancy was calculated as the ratio of the amount of immunoprecipitated DNA to that of the input sample (% input).

Structure (SMILES): CC1=C(/C=C/C(C)=C/C=C/C(C)=C/C(=O)O)C(C)(C)CCC1 [RA, retinoic acid]
- Ash1l protein expression level (Ash1l): highest
- Ash1l expression upregulation (mouse ES cells [1]; 4 days RA differentiation, FDR < 0.01, vs undifferentiated): 1.96 fold
- expression of Nsd1, all Mll family genes and several Plc genes (Ezh1, Ring1, Cbx7/8) (mouse ES cells [1]; RA differentiation): noticeably up-regulated
- expression of Setd2, BRD2/3/4 and Ezh2 (mouse ES cells [1]; RA differentiation): down-regulated
- HoxA9 relative expression (mouse ES cells [2]; WT mES cells, replicate 1): 83.8652
- Neurog2 relative expression (mouse ES cells [2]; WT mES cells, replicate 1): 4.681
- Olig1 relative expression (mouse ES cells [2]; WT mES cells, replicate 1): 5.04
- Runx1 relative expression (mouse ES cells [2]; WT mES cells, replicate 1): 31.4139
- HoxA9 relative expression (mouse ES cells [2]; WT mES cells, replicate 2): 95.0095
- Neurog2 relative expression (mouse ES cells [2]; WT mES cells, replicate 2): 6.712
- Olig1 relative expression (mouse ES cells [2]; WT mES cells, replicate 2): 5.327
- Runx1 relative expression (mouse ES cells [2]; WT mES cells, replicate 2): 47.9458
- HoxA9 relative expression (mouse ES cells [2]; WT mES cells, replicate 3): 128.89
- Neurog2 relative expression (mouse ES cells [2]; WT mES cells, replicate 3): 11.2096
- Olig1 relative expression (mouse ES cells [2]; WT mES cells, replicate 3): 5.4768
- Runx1 relative expression (mouse ES cells [2]; WT mES cells, replicate 3): 42.0296
- transcriptional expression of Ash1l (mouse ES cells [2]; qPCR time course, RA-induced differentiation): dramatic and time-dependent increase
- expression of HoxA9, Runx1, Neurog2, and Olig1 in CRISPR/Cas9 edited B7 clone (mouse ES cells [2]; retinoic acid, two days): altered expression
- HoxA9 relative expression (mouse ES cells [2]; ΔAsh1l B7 clone, replicate 1): 9.646
- Neurog2 relative expression (mouse ES cells [2]; ΔAsh1l B7 clone, replicate 1): 28.3773
- Olig1 relative expression (mouse ES cells [2]; ΔAsh1l B7 clone, replicate 1): 3.982
- Runx1 relative expression (mouse ES cells [2]; ΔAsh1l B7 clone, replicate 1): 2.976
- HoxA9 relative expression (mouse ES cells [2]; ΔAsh1l B7 clone, replicate 2): 8.282
- Neurog2 relative expression (mouse ES cells [2]; ΔAsh1l B7 clone, replicate 2): 24.5333
- Olig1 relative expression (mouse ES cells [2]; ΔAsh1l B7 clone, replicate 2): 4.037
- Runx1 relative expression (mouse ES cells [2]; ΔAsh1l B7 clone, replicate 2): 2.4005
- HoxA9 relative expression (mouse ES cells [2]; ΔAsh1l B7 clone, replicate 3): 11.0043
- Neurog2 relative expression (mouse ES cells [2]; ΔAsh1l B7 clone, replicate 3): 29.378
- Olig1 relative expression (mouse ES cells [2]; ΔAsh1l B7 clone, replicate 3): 4.238
- Runx1 relative expression (mouse ES cells [2]; ΔAsh1l B7 clone, replicate 3): 2.591
- Ash1l occupancy, Meis2 Enh 1 ([3]; replicate 1): 0.01897 % input
- Ash1l occupancy, Meis2 Enh 2 ([3]; replicate 1): 0.04268 % input
- Ash1l occupancy, Meis2 Enh 3 ([3]; replicate 1): 0.02225 % input
- Ash1l occupancy, Meis2 promoter ([3]; replicate 1): 0.06078 % input
- Ash1l occupancy, Meis2 Enh 1 ([3]; replicate 2): 0.02319 % input
- Ash1l occupancy, Meis2 Enh 2 ([3]; replicate 2): 0.04358 % input
- Ash1l occupancy, Meis2 Enh 3 ([3]; replicate 2): 0.02683 % input
- Ash1l occupancy, Meis2 promoter ([3]; replicate 2): 0.06121 % input
- Ash1l occupancy, Meis2 Enh 1 ([3]; replicate 3): 0.01327 % input
- Ash1l occupancy, Meis2 Enh 2 ([3]; replicate 3): 0.04413 % input
- Ash1l occupancy, Meis2 Enh 3 ([3]; replicate 3): 0.02442 % input
- Ash1l occupancy, Meis2 promoter ([3]; replicate 3): 0.05366 % input
- Ash1l recruitment to promoter and enhancer sites of Meis2 ([3]; RA-induced ESC differentiation, ChIP-qPCR): recruited to promoter and enhancer sites
